Reference: US20260237072A1, “FUNCTIONAL RESPIRATORY IMAGING ANALYSIS OF SERALUTINIB FOR THE TREATMENT OF PULMONARY ARTERIAL HYPERTENSION (PAH)” (GB002, INC., priority 2023, published 2026)
Where “and” joins values, the source holds several entries; their conditions need not be identical. Identical values can stand only once.

What was measured:
PAH patients [1] = assay: Clinical study: functional respiratory imaging (chest CT, automated pulmonary vascular segmentation) of pulmonary arterial blood vessel volume distribution; format: in vivo, human
Method: (§1) A clinical study was undertaken to examine the effect of Seralutinib on pulmonary arterial blood vessel volume distribution in PAH patients. Seralutinib was administered twice daily (BID) for 24 weeks, via dry powder inhalation, to PAH patients (WHO Group I, functional class II or III). Thin-section, volumetric non-contrast chest CTs were obtained (at baseline and week 24, minimum of 64 slices), followed by automated pulmonary vascular segmentation to evaluate the reverse remodeling potential of seralutinib.
From the scans, paired inspiratory-expiratory high-resolution non-contrast computer tomography studies were performed and the lobar tissue, airways and vasculature were reconstructed. Vasculature volumes are provided as a total blood volume (BV), and as BVX values, which divide the pulmonary blood volume depending on the size vessel in which the blood is contained, wherein:
Blood vessel volumes (BVV) of pulmonary arteries with a CSA<5 mm^2 (BV5A) and >10 mm^2 (BV10A) were calculated, and the BV5A to BV10A ratio (BV510ARATIO) was used to express relative redistribution of pulmonary arterial blood vessel volume. Linear regression was used to model the treatment effect.
(§2) Baseline and Week 24 CTs were obtained in 19 subjects (7 receiving seralutinib, 12 receiving placebo), mean age 49±12 years, 18 were female, as presented in Tables 1 and 2. All subjects were receiving two or three approved PAH-specific medications.
(§3) Case study 2 was of a person with WHO functional class II idiopathic PAH+severe rheumatoid arthritis receiving approved PAH Triple Therapy (ERA+PDE-5i+PRA).

PAH patients [2] = assay: Clinical study: change from baseline to week 24 in clinical parameters (PVR, MPAP, PAC, 6MWD, NTproBNP); format: in vivo, human; set-up: MPAP Change / 6MWD change / NTproBNP change: unit not given here
Method: as §1, §2, §3

[3] = Case Study 2, baseline to week 24, lung images
[4] = treatment effect vs placebo, week 24, linear regression
[5] = individual PAH patient, baseline to week 24, BID dry powder inhalation

**Q.** How did the BV5A/BV10A ratio (PAH patients [1]; [3]) turn out when `COc1ccc(-c2cncc(N[C@@H](C)c3cccc(NC(=O)c4cncc(C)c4)c3)n2)cc1OC` [Seralutinib, N-{3-[(1S)-1-{[6-(3,4-dimethoxyphenyl)pyrazin-2-yl]amino}ethyl]phenyl}-5-methylpyridine-3-carboxamide] was run?
**A.** The BV5A/BV10A ratio was “Increase”.

**Q.** And the “Decrease in BV10APRA” value (PAH patients [1]; [3])?
**A.** The value was 8%.

**Q.** And the “Increase in BV5APRA” value (PAH patients [1]; [3])?
**A.** Its value is 6%.

**Q.** What about the “BV5A PRA (%)*” value (PAH patients [1]; Case Study 2, week 24) of the same molecule?
**A.** Its value is “+5.6%”.

**Q.** And the “BV10A PRA (%)*” value (PAH patients [1]; Case Study 2, week 24)?
**A.** The value was −7.7%.

**Q.** And the “BV510A RATIO” value (PAH patients [1]; Case Study 2, week 24)?
**A.** The value was “+2.5”.

**Q.** What about the “redistribution of pulmonary arterial blood vessel volume to more distal vessels” value (PAH patients [1]; subjects with PAH on dual or triple PAH therapies, seralutinib added) of the same molecule?
**A.** Its value is “significant redistribution”.

**Q.** What about the “BV5APRA regression model effect estimate” value (PAH patients [1]; [4]) of the same molecule?
**A.** Its value is 2.625.

**Q.** What about the “BV5PR regression model effect estimate” value (PAH patients [1]; [4]) of the same molecule?
**A.** The value was 1.835.

**Q.** What about the “BV10APRA regression model effect estimate” value (PAH patients [1]; [4]) of the same molecule?
**A.** The value was −2.711.

**Q.** And the “BV10PR regression model effect estimate” value (PAH patients [1]; [4])?
**A.** Its value is −2.180.

**Q.** And the “BV510RATIO regression model effect estimate” value (PAH patients [1]; [4])?
**A.** Its value is 0.843.

**Q.** And the “BV510ARATIO regression model effect estimate” value (PAH patients [1]; treatment effect vs placebo, week 24, linear regression, 7 seralutinib, 12 placebo)?
**A.** Its value is 0.845.

**Q.** And the “least squares mean difference value of the BV510ARatio” value (PAH patients [1]; vs placebo, 95% CI 0.105, 1.585, p-value 0.028)?
**A.** Its value is 0.845.

**Q.** And the “BV510A Ratio in the seralutinib group compared to placebo” value (PAH patients [1]; week 24, p=0.028)?
**A.** Its value is “significantly higher”.

**Q.** And the “PVR coincident with arterial volume shifts” value (PAH patients [2]; Case Study 2, baseline to week 24)?
**A.** The value was “Improvement”.

**Q.** And the 6MWD change (PAH patients [2]; Case Study 2, week 24)?
**A.** The 6MWD change was −48.

**Q.** What about the NTproBNP change (PAH patients [2]; Case Study 2, week 24) of the same molecule?
**A.** The NTproBNP change was 41.

**Q.** And the PVR Change (PAH patients [2]; Case Study 2, week 24, PVR baseline 408)?
**A.** The PVR Change was −159.

**Q.** What about the “MPAP Change” value (PAH patients [2]; [5]) of the same molecule?
**A.** Its value is −4 and −3 (2×) and −8 and 3 and −2.

**Q.** What about the “PAC Change (pulmonary arterial compliance)” value (PAH patients [2]; [5]) of the same molecule?
**A.** Its value is 0.65 and 0.24 and 0.85 and 0.31 and 0.11 and 0.32.

**Q.** What about the “PVR Change” value (PAH patients [2]; [5]) of the same molecule?
**A.** Its value is −159 and −11 and −52 and −235 and −139 and −171.
